Marks after values point to notes of the source that are not given here.
How the values were obtained:
MCHR1 [1] = molecular target: T1, MCHR1 (Rattus norvegicus, UniProt P97639); experiment: Ex vivo brain autoradiography after IV injection into the jugular vein of awake rats; format: in vivo, Sprague-Dawley rats; parameters: from tissue; host or cells: rat brain (hypothalamus, ventricular system) and peripheral organs after in vivo injection; conditions: for Ratio Hypothalamus/non-target / Ratio Ventricle/non-target: ratio of ROIs (DLU/mm^2), 45 min after injection, n = 3
T1 sequence (P97639 whole entry): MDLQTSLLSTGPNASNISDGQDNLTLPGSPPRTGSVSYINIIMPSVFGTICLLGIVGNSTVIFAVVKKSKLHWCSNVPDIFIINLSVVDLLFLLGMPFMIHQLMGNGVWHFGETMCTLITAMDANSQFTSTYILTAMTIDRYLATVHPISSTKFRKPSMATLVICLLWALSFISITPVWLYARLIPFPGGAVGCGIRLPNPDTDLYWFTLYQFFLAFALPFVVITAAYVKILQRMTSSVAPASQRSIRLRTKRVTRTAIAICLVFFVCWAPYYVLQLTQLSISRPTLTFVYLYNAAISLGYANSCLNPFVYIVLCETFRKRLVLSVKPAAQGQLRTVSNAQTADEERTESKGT
Experimental: (§1) Conscious and freely moving rats of the baseline and blocking groups were always examined simultaneously: rats of the baseline group (n = 3) received vehicle (400 μL), and rats of the blocking group (n = 3) received SNAP-7941 (15 mg/kg; freshly dissolved in 400 μL) via the jugular vein 30 min prior to tracer application. Via the jugular vein, 51.33 ± 26.2 MBq of [^18F]FE@SNAP (specific activity 12.3–43.1 GBq/μmol; radiochemical purity ≥95 %; 30–100 μL) was then administered to all rats. After 45 min, rats were sacrificed by IV ketamine injection and decapitated, and the brains were removed and immediately quick frozen in isopentane (−45 °C) for ex vivo autoradiography. Other organs including the eyes, tongue, muscle, epidermal white adipose tissue (WATep), heart, lung, stomach, pancreas, liver, duodenum, colon, spleen, kidneys, adrenals, testis, bladder and bone as well as blood and urine were removed, weighed and measured in a gamma counter (2480 WIZARD^2, PerkinElmer). Radioactivity concentrations were normalized to dose and weight and expressed as percent injected dose per gram (%ID/g). To determine significant differences, a two-tailed t test with […] was performed using the statistics add-on in Microsoft Excel® 2013. A value of P < 0.05 was considered as significant.
Whole rat brains (n = 6) were cut in a cryo-microtome (Microm HM 560, Thermo Scientific) into 50-μm-thick slices and thaw-mounted onto superfrost slides (Menzel-Gläser SUPERFROST® PLUS, Thermo Scientific). Samples were placed on Phosphor Imager plates (Multisensitive Phosphor Screens Long Type MS, PPN 7001724, PerkinElmer) for an exposure period of 18 h and then analysed with a Cyclone Phosphor Imager (Cyclone Plus Storage Phosphor System, PerkinElmer). Data analysis was performed with OptiQuant® data processing software Version 5.0. Due to high-MCHR1 appearance, special emphasis was laid on the hypothalamus and the ventricular system. […] To facilitate comparison, manually defined template ROIs fitting to all slices (30 slices/brain; bregma −1.0 to −2.5 mm) were applied. […] In detail, ratios of hypothalamus/non-target and ventricle/non-target were calculated. Significant differences were calculated as described before.
Fig. 2 Scheme of the ROIs for calculation of ratios. 1 (yellow): ventricular system; 2 (green): hypothalamic area; 3 (pink): non-target region; and 4 (orange): whole brain. It is noteworthy that ROIs 1 and 2 include the target areas as well as some background areas, due to varying target size throughout the different brain levels (bregma)

[2] = Blood metabolite analysis by radio-TLC; format: in vivo, Sprague-Dawley rats; conditions: 45 min after tracer application, baseline group, n = 3, plasma
Experimental: For analysis of potential circulating metabolites, blood samples from the baseline group were collected into heparinized tubes and immediately stored on ice before processing. The blood was centrifuged (Hettich Rotanta/TRC; 3400×g, 4 min) to separate cellular components. Sample cleanup was performed by vortexing plasma with the equivalent amount of acetonitrile and by subsequent centrifugation (Hettich Universal 30RF; 23,000×g, 3 min) to remove precipitated proteins. The obtained supernatant was applied to radio-thin-layer chromatography (radio-TLC silica gel plates, mobile phase acetonitrile/water 70/30 v/v, application volume 2 μL on origin) and analysed via a Canberra-Packard Instant Imager.

[3] = Biodistribution 45 min after IV injection; format: in vivo, Sprague-Dawley rats; conditions: rats, 45 min after injection
Experimental: as §1

MCHR2 = molecular target: MCHR2; parameters: method as in PMID 24106662; conditions: second MCH receptor; cited from earlier work
MCHR1 [4] = molecular target: T1, MCHR1; experiment: Preliminary small-animal PET/MR imaging; format: in vivo; parameters: from tissue; host or cells: living rat (in vivo PET imaging); conditions: healthy anaesthetized rat, baseline conditions, tail vein bolus
Experimental: An anaesthetized rat (with 1.5–2.5 % isoflurane) was immobilized in a multimodal animal carrier unit (MACU; medres®—medical research GmbH, Cologne, Germany) and maintained at a body temperature of 37 °C throughout the whole experiment. [^18F]FE@SNAP (47.64 ± 1.23 MBq) was injected as a bolus via the lateral tail vein, and dynamic PET imaging (Siemens Inveon preclinical μPET/SPECT/CT system) was performed over 60 min. Immediately afterwards, T1-weighted high-resolution axial, coronary and sagittal brain MRI scans were performed using a Bruker BioSpec 94/30 USR small-animal MR system (Bruker BioSpin GmbH, Karlsruhe, Germany).

human MCHR1 = molecular target: human MCHR1; parameters: method as in PMID 24106662; conditions: CHO cells expressing the human MCHR1; cited from earlier work
[5] = blocking with SNAP-7941 15 mg/kg 30 min prior

Ratio Hypothalamus/non-target (MCHR1 [1]; baseline (vehicle)): 2.14 ± 0.9
Ratio Ventricle/non-target (MCHR1 [1]; baseline (vehicle)): 2.20 ± 0.4
whole-brain uptake, blocking group versus baseline animals (MCHR1 [1]; blocking with 15 mg/kg SNAP-7941, n = 3 per group): significantly higher
Ratio Hypothalamus/non-target (MCHR1 [1]; [5]): 1.58 ± 0.5^a
Ratio Ventricle/non-target (MCHR1 [1]; [5]): 1.38 ± 0.2^a
parent compound in the blood [2]: 51.50 ± 5.5%
defluorination / uptake of ^18F-fluoride into the bone [3]: no defluorination
SMILES: COCC1=C(C(=O)OCC[18F])C(c2ccc(F)c(F)c2)N(C(=O)NCCCN2CCC(c3cccc(NC(C)=O)c3)CC2)C(=O)N1 (stereo not shown) [[^18F]FE@SNAP]
Ki (MCHR2): > 1000 nM
tracer uptake in brain (small-animal PET) (MCHR1 [4]): high tracer uptake in the ventricular system
Kd (human MCHR1): 2.9 nM

Reference: PMC4816952, “[^18F]FE@SNAP—a specific PET tracer for melanin-concentrating hormone receptor 1 imaging?” (EJNMMI Research, 2016)
